# In US20220071210A1, “FUNGICIDAL MIXTURE” (Adama Makhteshim Ltd., priority 2018, published 2022):
# System: Ramularia collo-cygni
# Assay: Fungicidal control of Ramularia collo-cygni on winter barley (spray treatments, alone and tank mix)
# Format: in vivo
# Settings: sprayed twice 14 days apart, rate (gr A.I./ha) as in table; for % control observed, 38 Days after 2nd application: untreated severity 85.6%; for % control observed, 44 Days after 2nd application: untreated severity 100%
# Method: An experiment was conducted to evaluate the fungicidal control of Ramularia collo-cygni on winter barley with a dehydrogenase inhibitor fungicide (fluxapyroxad), and folpet, alone, and in binary mixtures.
# The experiments were conducted by applying a commercially available composition of fluxapyroxad (Imtrex®) and folpet (MCW-296 SC) alone or together. The compositions were diluted with water to the stated concentration of the active compound.
# The following active ingredients and their mixtures were evaluated: • Fluxapyroxad 90 gr (A.I.)/ha • Folpet 750 gr (A.I.)/ha • Fluxapyroxad+Folpet 90 gr (A.I.)/ha+750 gr (A.I.)/ha
# To test for fungicidal control of Ramularia collo-cygni, the winter barley was sprayed with each of the above treatments. Each of the above treatments were applied twice, the 2nd treatment occurring 14 days after the first treatment. The treatments were composed of 4 replicates.
# Evaluations were performed at 38 days and 44 days after the second treatment. At these times the severity of the Ramularia collo-cygni was determined. At the time of the 1st evaluation (38 days after the second treatment) the severity of the infection of Ramularia collo-cygni on the winter barley was 85.6%. At the time of the 2nd evaluation (44 days after the second treatment) the severity was 100%.
# The visually determined percentages of infected leaf areas may be converted into efficacies in % of the untreated control:
# The efficacy (E) is calculated as follows using Abbott's formula: […]
# A corresponds to the fungicidal infection of the treated plants in % and B corresponds to the fungicidal infection of the untreated (control) plants in %.
# An efficacy of 0 means that the infection level of the treated plants corresponds to that of the untreated control plants; an efficacy of 100 means that the treated plants are not infected.
# In the field of agriculture, it is often understood that the term “synergy” is as defined by Colby S. R. in an article entitled “Calculation of the synergistic and antagonistic responses of herbicide combinations” published in the journal Weeds, 1967, 15, p. 20-22. The action expected for a given combination of two active components can be calculated as follows: […]
# in which E represents the expected percentage of fungicidal control for the combination of the two fungicides at defined doses (for example equal to x and y respectively), X is the percentage of fungicidal control observed by the compound (I) at a defined dose (equal to x), Y is the percentage of fungicidal control observed by the compound (II) at a defined dose (equal to y). When the percentage of fungicidal control observed for the combination is greater than the expected percentage, there is a synergistic effect.
Compound,"% control observed, 38 Days after 2nd application","% control observed, 44 Days after 2nd application"
"Cn1cc(C(=O)Nc2ccccc2-c2cc(F)c(F)c(F)c2)c(C(F)F)n1 [Fluxapyroxad, fluxapyroxad]",47.1%,12.2%
"O=C1c2ccccc2C(=O)N1SC(Cl)(Cl)Cl [Folpet, folpet]",30.3%,9.7%
